According to the kinase profiling compilation of Christmann-Franck et al. (2016):
Several values for one entry are separate records, joined by “and”; a condition that tells them apart may be missing. Identical values can stand only once.

Key:
Assay in all cases: radiometric filter-binding kinase assay, Kinase HotSpot
Details in all cases: compound 0.5 µM; ATP 10 µM
[1] = target: SYK (human) (UniProt P43405)
[2] = target: PIM3 (human) (UniProt Q86V86)
[3] = target: TBK1 (human) (UniProt Q9UHD2)
[4] = target: PRKG2 (human) (UniProt Q13237)
[5] = target: MAPK14 (human) (UniProt Q16539)
[6] = target: CSNK1G2 (human) (UniProt P78368)
[7] = target: RPS6KA6 KD1 KD2 (human) (UniProt Q9UK32)
[8] = target: NEK11 (human) (UniProt Q8NG66)
[9] = target: CAMKK2 (human) (UniProt Q96RR4)
[10] = target: HIPK1 (human) (UniProt Q86Z02)
[11] = target: PRKCA (human) (UniProt P17252)
[12] = target: FGFR3 (human) (UniProt P22607)
[13] = target: NEK9 (human) (UniProt Q8TD19)
[14] = target: RPS6KB1 (human) (UniProt P23443)
[15] = target: PLK1 (human) (UniProt P53350)
[16] = target: EPHA2 (human) (UniProt P29317)
[17] = target: LYN (human) (UniProt P07948)
[18] = target: PRKCH (human) (UniProt P24723)
[19] = target: CAMK1D (human) (UniProt Q8IU85)
[20] = target: MAPK11 (human) (UniProt Q15759)
[21] = target: MST1R (human) (UniProt Q04912)
[22] = target: ROS1 (human) (UniProt P08922)
[23] = target: CAMK1G (human) (UniProt Q96NX5)
[24] = target: NEK1 (human) (UniProt Q96PY6)
[25] = target: LIMK1 (human) (UniProt P53667)
[26] = target: DYRK4 (human) (UniProt Q9NR20)
[27] = target: LTK (human) (UniProt P29376)
[28] = target: GRK6 (human) (UniProt P43250)
[29] = target: PAK6 (human) (UniProt Q9NQU5)
[30] = target: TGFBR1 (human) (UniProt P36897)
[31] = target: ROCK2 (human) (UniProt O75116)
[32] = target: SGK2 (human) (UniProt Q9HBY8)
[33] = target: TAOK3 (human) (UniProt Q9H2K8)
[34] = target: PDGFRB (human) (UniProt P09619)
[35] = target: ULK2 (human) (UniProt Q8IYT8)
[36] = target: CSNK2A1 (human) (UniProt P68400)
[37] = target: TYK2 JH1 catalytic (human) (UniProt P29597)
[38] = target: CSNK1D (human) (UniProt P48730)
[39] = target: CAMKK1 (human) (UniProt Q8N5S9)
[40] = target: SLK (human) (UniProt Q9H2G2)
[41] = target: PAK3 (human) (UniProt O75914)
[42] = target: SRMS (human) (UniProt Q9H3Y6)

LYN (human), sequence (P07948 whole entry, looked up): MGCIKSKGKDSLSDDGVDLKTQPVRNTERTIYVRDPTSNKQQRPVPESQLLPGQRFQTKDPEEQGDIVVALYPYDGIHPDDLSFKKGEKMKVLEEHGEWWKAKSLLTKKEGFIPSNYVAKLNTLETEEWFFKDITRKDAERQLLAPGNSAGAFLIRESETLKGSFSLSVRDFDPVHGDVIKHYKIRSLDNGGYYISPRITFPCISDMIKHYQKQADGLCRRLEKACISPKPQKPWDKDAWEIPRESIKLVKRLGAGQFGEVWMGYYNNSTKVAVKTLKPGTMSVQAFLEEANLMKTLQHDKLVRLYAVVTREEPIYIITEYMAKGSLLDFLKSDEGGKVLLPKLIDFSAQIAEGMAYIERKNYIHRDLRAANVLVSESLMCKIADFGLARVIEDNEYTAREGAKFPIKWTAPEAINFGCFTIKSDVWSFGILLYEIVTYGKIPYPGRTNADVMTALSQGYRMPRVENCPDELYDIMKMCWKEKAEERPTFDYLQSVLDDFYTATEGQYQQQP
PRKG2 (human), sequence (Q13237 whole entry, looked up): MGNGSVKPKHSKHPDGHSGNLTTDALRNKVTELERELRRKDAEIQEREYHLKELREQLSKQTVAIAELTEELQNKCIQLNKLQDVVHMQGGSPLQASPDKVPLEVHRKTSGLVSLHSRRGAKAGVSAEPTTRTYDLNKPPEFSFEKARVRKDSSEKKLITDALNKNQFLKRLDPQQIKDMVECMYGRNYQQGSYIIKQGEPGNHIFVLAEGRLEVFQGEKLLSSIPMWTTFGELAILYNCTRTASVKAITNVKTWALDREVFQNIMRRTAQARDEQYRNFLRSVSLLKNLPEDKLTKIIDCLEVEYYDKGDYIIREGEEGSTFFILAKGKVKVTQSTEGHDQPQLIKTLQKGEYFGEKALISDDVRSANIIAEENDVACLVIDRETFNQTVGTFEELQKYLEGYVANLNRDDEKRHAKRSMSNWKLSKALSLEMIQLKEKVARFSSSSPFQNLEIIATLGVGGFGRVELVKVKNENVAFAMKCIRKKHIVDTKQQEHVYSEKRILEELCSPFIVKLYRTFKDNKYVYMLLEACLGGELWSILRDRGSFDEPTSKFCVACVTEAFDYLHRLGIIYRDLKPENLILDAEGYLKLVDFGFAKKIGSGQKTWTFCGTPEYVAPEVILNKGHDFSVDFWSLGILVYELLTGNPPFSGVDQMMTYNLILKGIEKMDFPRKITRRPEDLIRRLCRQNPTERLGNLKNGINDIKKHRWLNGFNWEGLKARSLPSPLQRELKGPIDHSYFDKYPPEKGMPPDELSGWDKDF
CAMK1D (human), sequence (Q8IU85 whole entry, looked up): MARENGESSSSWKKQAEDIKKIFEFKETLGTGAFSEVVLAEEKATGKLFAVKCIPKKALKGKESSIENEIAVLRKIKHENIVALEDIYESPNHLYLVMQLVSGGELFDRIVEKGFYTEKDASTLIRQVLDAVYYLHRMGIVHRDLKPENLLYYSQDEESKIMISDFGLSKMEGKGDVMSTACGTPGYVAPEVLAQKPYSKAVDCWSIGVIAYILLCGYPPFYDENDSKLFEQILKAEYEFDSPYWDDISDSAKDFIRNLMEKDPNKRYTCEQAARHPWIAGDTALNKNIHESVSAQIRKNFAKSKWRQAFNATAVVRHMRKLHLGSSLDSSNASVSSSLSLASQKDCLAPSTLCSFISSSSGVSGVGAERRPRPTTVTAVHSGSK
TBK1 (human), sequence (Q9UHD2 whole entry, looked up): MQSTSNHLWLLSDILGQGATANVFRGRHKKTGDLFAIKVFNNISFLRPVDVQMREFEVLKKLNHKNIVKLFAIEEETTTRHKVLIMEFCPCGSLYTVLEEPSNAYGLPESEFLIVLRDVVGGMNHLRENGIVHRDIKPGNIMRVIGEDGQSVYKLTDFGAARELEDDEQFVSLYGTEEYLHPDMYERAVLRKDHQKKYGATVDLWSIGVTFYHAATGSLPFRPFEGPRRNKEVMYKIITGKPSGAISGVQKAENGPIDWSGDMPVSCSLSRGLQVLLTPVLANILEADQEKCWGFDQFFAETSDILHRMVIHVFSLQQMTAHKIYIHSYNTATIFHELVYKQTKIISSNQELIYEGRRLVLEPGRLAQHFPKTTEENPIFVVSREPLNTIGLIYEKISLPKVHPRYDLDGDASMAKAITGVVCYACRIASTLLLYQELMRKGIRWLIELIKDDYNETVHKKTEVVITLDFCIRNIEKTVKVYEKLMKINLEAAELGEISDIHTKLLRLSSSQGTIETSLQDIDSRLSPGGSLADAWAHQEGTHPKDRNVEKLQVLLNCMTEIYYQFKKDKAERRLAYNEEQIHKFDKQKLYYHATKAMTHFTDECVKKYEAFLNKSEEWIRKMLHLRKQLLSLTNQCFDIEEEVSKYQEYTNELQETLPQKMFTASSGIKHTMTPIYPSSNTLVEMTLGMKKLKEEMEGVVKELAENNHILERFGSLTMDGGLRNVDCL
PRKCH (human), sequence (P24723 whole entry, looked up): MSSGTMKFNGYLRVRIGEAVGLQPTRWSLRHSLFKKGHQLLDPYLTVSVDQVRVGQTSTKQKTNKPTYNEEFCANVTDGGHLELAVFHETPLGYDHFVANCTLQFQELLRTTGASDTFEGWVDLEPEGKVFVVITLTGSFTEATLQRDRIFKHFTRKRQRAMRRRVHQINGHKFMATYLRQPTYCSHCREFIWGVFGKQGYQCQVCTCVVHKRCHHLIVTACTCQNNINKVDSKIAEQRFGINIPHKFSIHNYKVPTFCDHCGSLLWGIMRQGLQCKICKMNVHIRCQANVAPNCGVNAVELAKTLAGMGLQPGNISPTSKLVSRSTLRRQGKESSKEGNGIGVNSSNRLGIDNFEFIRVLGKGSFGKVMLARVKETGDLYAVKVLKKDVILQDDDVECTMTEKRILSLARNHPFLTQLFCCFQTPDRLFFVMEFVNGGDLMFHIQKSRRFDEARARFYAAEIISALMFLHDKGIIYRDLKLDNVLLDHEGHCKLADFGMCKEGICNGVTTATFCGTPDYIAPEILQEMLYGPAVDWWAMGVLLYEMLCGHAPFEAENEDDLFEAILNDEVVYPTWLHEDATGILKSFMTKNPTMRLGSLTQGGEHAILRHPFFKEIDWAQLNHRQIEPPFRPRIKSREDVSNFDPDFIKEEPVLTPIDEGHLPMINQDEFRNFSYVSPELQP
CAMK1G (human), sequence (Q96NX5 whole entry, looked up): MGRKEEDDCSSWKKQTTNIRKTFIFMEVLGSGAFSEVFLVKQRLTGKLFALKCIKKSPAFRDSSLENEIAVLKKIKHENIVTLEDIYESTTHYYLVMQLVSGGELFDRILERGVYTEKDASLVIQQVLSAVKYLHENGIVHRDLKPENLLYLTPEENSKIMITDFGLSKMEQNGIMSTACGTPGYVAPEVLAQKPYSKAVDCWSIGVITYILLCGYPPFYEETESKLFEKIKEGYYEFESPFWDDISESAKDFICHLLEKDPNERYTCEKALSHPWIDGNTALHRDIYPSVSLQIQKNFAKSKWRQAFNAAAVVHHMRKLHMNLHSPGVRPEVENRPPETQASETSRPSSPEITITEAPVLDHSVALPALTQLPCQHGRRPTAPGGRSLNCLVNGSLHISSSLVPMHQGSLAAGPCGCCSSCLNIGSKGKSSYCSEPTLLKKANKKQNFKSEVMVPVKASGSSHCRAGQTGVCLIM
NEK9 (human), sequence (Q8TD19 whole entry, looked up): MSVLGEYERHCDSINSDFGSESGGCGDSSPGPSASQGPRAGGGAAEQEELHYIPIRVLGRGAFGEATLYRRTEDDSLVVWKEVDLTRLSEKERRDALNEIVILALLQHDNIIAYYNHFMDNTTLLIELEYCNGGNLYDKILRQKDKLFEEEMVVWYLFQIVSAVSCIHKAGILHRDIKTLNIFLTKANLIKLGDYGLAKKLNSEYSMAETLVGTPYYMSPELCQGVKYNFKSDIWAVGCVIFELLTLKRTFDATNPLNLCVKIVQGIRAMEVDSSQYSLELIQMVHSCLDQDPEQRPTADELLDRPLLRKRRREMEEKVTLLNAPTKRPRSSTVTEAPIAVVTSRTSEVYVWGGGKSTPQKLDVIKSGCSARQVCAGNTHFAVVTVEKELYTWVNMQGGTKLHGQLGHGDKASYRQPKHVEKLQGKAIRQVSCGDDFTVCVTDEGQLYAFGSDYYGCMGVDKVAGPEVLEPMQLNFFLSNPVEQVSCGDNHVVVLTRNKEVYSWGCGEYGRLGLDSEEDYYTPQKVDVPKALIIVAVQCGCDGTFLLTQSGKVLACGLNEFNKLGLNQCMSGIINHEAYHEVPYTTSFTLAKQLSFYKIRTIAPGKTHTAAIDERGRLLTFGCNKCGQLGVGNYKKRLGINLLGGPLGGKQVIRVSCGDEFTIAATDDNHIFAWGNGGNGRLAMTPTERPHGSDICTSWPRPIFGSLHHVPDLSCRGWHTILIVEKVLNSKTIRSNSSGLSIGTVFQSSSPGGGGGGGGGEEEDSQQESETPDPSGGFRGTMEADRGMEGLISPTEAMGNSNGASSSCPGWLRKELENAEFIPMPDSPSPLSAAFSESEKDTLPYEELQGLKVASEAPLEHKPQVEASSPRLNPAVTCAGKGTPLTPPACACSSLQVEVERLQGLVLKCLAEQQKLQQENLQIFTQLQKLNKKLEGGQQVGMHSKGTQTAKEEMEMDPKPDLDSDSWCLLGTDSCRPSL

CC#CC(=O)Nc1cc2c(Nc3ccc(F)c(Cl)c3)ncnc2cn1
residual activity [1]: 95.4% | residual activity [2]: 89.1% | residual activity [3]: 105% | residual activity [4]: 105% | residual activity [5]: 101% | residual activity [6]: 94.9% | residual activity [7]: 95.3% | residual activity [8]: 86.6% | residual activity [9]: 103% | residual activity [10]: 108% | residual activity [11]: 101% | residual activity [12]: 108% | residual activity [13]: 104% | residual activity [14]: 97.1% | residual activity [15]: 99.3% | residual activity [16]: 103% | residual activity [17]: 88.3% and 96.1% | residual activity [18]: 90.4% | residual activity [19]: 107% | residual activity [20]: 96.2% | residual activity [21]: 104% | residual activity [22]: 91.3% | residual activity [23]: 99.2% | residual activity [24]: 105% | residual activity [25]: 84.2% | residual activity [26]: 98% | residual activity [27]: 93% | residual activity [28]: 104% | residual activity [29]: 96.9% | residual activity [30]: 98.7% | residual activity [31]: 98.7% | residual activity [32]: 98.3% | residual activity [33]: 110% | residual activity [34]: 103% | residual activity [35]: 96.7% | residual activity [36]: 90.9% | residual activity [37]: 106% | residual activity [38]: 99.3% | residual activity [39]: 124% | residual activity [40]: 93.6% | residual activity [41]: 99% | residual activity [42]: 96.1%

CCC(=O)Nc1ccc2ncnc(Nc3cccc(Br)c3)c2c1
residual activity [1]: 94.3% | residual activity [2]: 76.6% | residual activity [3]: 95.6% | residual activity [4]: 110% | residual activity [5]: 82.8% | residual activity [6]: 98.1% | residual activity [7]: 90.6% | residual activity [8]: 103% | residual activity [9]: 84.3% | residual activity [10]: 104% | residual activity [11]: 96.5% | residual activity [12]: 93.2% | residual activity [13]: 105% | residual activity [14]: 91.2% | residual activity [15]: 95.3% | residual activity [16]: 101% | residual activity [17]: 82.6% and 87.7% | residual activity [18]: 89.3% | residual activity [19]: 104% | residual activity [20]: 92.9% | residual activity [21]: 97.2% | residual activity [22]: 97.5% | residual activity [23]: 92.1% | residual activity [24]: 76.9% | residual activity [25]: 88.7% | residual activity [26]: 113% | residual activity [27]: 81% | residual activity [28]: 97.6% | residual activity [29]: 101% | residual activity [30]: 101% | residual activity [31]: 86.1% | residual activity [32]: 96.2% | residual activity [33]: 89.2% | residual activity [34]: 98% | residual activity [35]: 118% | residual activity [36]: 99% | residual activity [37]: 90.2% | residual activity [38]: 96.9% | residual activity [39]: 99.8% | residual activity [40]: 90% | residual activity [41]: 105% | residual activity [42]: 99.4%
